In US7388096B2, “Crystalline forms of a factor Xa inhibitor” (Bristol-Myers Squibb Company, priority 2004, dated 2008):
“Also recorded” adds a separate entry of the source. One block for each molecule: values may come before it.

Legend:
Type in all cases: physicochemical
[1] = form conversion in slurry / relative thermodynamic stability of polymorphs
Method: (§1) SSNMR and XRPD indexing studies have proven that Form N-3 is a single phase. No significant weight loss was observed up to about 250° C. in TGA analysis. […] Form N-3 has the tendency to form small primary particles (<10 μm) of the shape of needles or rods.
(§2) P-1 is a desolvated phase obtained by drying the initial material (potential solvates) crystallized from the reaction mixture. P-1 has never been observed in slurry, and therefore there is no evidence to support assignment of P-1 as a single and neat phase that is crystallized directly from the reaction mixture. […] P-1 can also convert to Form N-2 upon heating at 230° C. in solid state.
A Good Laboratory Practice batch (˜550 g) of Form N-3 has been manufactured successfully by converting P-1 material using a slurry method in acetone at about 50° C. Acetone slurries of Form P-1 spiked at about 50° C. with 1% water still yield Form N-3, but the slurries spiked with 5% and 10% water result in P-3 (solvated) material. […] The hemi sec BuOH solvate, form 0.5SBU-4, converts to form N-2 upon heating. […] Form N-1 also undergoes a solid state transition to Form N-2 upon heating at about 90 to 130° C. In addition, P-1 converts to potential solvate/hydrate forms by slurrying in different solvent systems, e.g., MeOH/EtOAc, DMF/H2O, DMSO/H2O, NMP/H2O at room temperature or at about 50° C.

[2] = moisture sorption and desorption study; conditions: for hygroscopicity (in words): moisture sorption and desorption study
Method: as §1, §2

[3] = accelerated stability studies (physical stability, XRPD of stressed samples); conditions: for physical stability in accelerated stability studies: 40° C./75% RH/Open/4 Weeks and 50° C./Closed/4 Weeks
Method: as §1
Form N-1 undergoes a solid-state transition at about 90° C. as evidenced by hot-stage microscopy studies and converts to Form N-2 at about 90° C. which is confirmed by […] studies. Thermal analysis by DSC (FIG. 8) and TGA show a small exotherm at about 113° C., which is attributed to the solid-state transition to Form N-2, followed by a melting endotherm at about 255 to about 259° C. similar to the melting range for Form N-2.
as §2

- form conversion in slurry ([1]; slurry at 25 and 60° C.): converts to N-3
- form conversion in slurry ([1]; slurry in acetone at RT or about 50° C.): converts to Form N-3 readily
- moisture adsorption ([2]; at 90% RH at 25° C.): ~1.2%
- hygroscopicity (in words) [2]: nonhygroscopic
- physical stability in stability study ([3]; 40° C./75% RH/Open for 5 Weeks and 50° C./Closed for 4 Weeks): physically stable
SMILES: NC(=O)c1nn(-c2cccc(Cl)c2)c2c1CCN(c1ccc(-n3ccccc3=O)cc1)C2=O [Form N-2, 1-(3-chlorophenyl)-7-oxo-6-[4-(2-oxo-1(2H)pyridinyl)phenyl]-4,5,6,7-tetrahydro-1H-pyrazolo[3,4-c]pyridine-3-carboxamide]
- relative thermodynamic stability of polymorphs ([1]; 25° C. to 60° C.): thermodynamically less stable than polymorph N-3

- relative thermodynamic stability of polymorphs ([1]; room temperature to 60° C., from slurry conversions): thermodynamically more stable polymorph
- hysteresis in moisture sorption/desorption ([2]; up to 95% RH at 25° C.): no hysteresis was observed
- moisture sorption ([2]; up to 95% RH at 25° C.): 0.4%
- physical stability in accelerated stability studies [3]: physically stable
SMILES: NC(=O)c1nn(-c2cccc(Cl)c2)c2c1CCN(c1ccc(-n3ccccc3=O)cc1)C2=O [Form N-3, 1-(3-chlorophenyl)-7-oxo-6-[4-(2-oxo-1(2H)pyridinyl)phenyl]-4,5,6,7-tetrahydro-1H-pyrazolo[3,4-c]pyridine-3-carboxamide]
- relative thermodynamic stability of polymorphs ([1]; 25° C. to 60° C.): thermodynamically more stable than polymorphs N-1 and N-2
- hygroscopicity (in words) [2]: nonhygroscopic; also recorded: non-hygroscopic

- form conversion in solvents ([1]; in solvents (e.g., acetone)): converts to Form N-3
- form conversion in slurry ([1]; slurry in different solvents (e.g., acetone, ACN, DMSO/MTBE) at about 50° C.): converts to Form N-3
- hygroscopicity (in words) [2]: hygroscopic
- weight gain on adsorption ([2]; to 90% RH): ~16%
- physical stability in accelerated stability studies (XRPD assay) ([3]; stressed for 3 weeks, 40° C./75% RH/Open): physically unstable
SMILES: NC(=O)c1nn(-c2cccc(Cl)c2)c2c1CCN(c1ccc(-n3ccccc3=O)cc1)C2=O [Form P-1, 1-(3-chlorophenyl)-7-oxo-6-[4-(2-oxo-1(2H)pyridinyl)phenyl]-4,5,6,7-tetrahydro-1H-pyrazolo[3,4-c]pyridine-3-carboxamide]

- form conversion in slurry ([1]; slurry in acetone): converts to N-3 readily
- physical stability in accelerated stability studies [3]: physically unstable
SMILES: NC(=O)c1nn(-c2cccc(Cl)c2)c2c1CCN(c1ccc(-n3ccccc3=O)cc1)C2=O [Form N-1, 1-(3-chlorophenyl)-7-oxo-6-[4-(2-oxo-1(2H)pyridinyl)phenyl]-4,5,6,7-tetrahydro-1H-pyrazolo[3,4-c]pyridine-3-carboxamide]
